Laboratory results published in publication PMC7732531 (Frontiers in Pharmacology, 2020).
Several values for one entry are separate records, joined by “and”; a condition that tells them apart may be missing. Identical values can stand only once. Like-named read-outs stand apart in the source and are kept apart here.

Assays:
[1] = Stability of YL-IPA08 in rat plasma (LC-MS/MS validation); format: in vitro ADME
Protocol: The quantification of YL-IPA08 in rat plasma was fully validated, and in vitro samples were particularly validated by selectivity, precision, and stability. The calibration curves of YL-IPA08 in rat plasma and in vitro incubates ranged in the concentrations of 0.5–500 ng/ml and 1–1,000 nM, respectively. The intra-day precision and inter-day precision […] were less than 15% at QC concentrations (full methodology validation results were presented in Supplementary Tables S1–S3).

Caco-2 cells = assay: in vitro
Protocol: (§1) Caco-2 cell lines were cultured (ATCC, Manassas, VA, United States) as described previously ([Liu et al., 2014]). Briefly, the cells were cultured at 37°C in 5% CO2 at 90% humidity in DMEM high glucose medium containing 20% fetal bovine serum, 1% nonessential amino acids, 100 U/ml penicillin and 1% streptomycin. For the efflux studies, the cells were seeded onto polyethylene terephthalate Millicell® cell culture inserts (0.4 μm pore size, 6.5 mm diameter, Millipore Corporation, Billerica, MA, United States) at a density of 1.7 × 10^5 cells/ml. The culture medium was refreshed on the day after seeding, after which it was refreshed every other day and on the day before the transport experiment. The cells were cultured for 20–22 days after seeding and then evaluated by measuring the transepithelial electrical resistance (TEER) (Millicell ERS®, Millipore Corporation) before experiments. […] Transepithelial permeability studies for YL-IPA08 (10 μM) were conducted from apical to basolateral side (A-B) and basolateral to apical side (B-A) for 120 min 0.2% BSA was included in the receiver solution to avoid nonspecific binding. At 60, 90, and 120 min, half volume of solution from receiver side was withdrawn, and same volume of HBSS was immediately added. Obtained samples were precipitated by adding 4× volumes of acetonitrile containing IS and centrifuged. The supernatants were stored in −20°C until further analysis by LC-MS/MS.
(§2) The in vitro t1/2 in liver microsomal incubation was calculated from the semi-log plot of percentage remaining vs. incubation time and intrinsic clearance (Clint, ml/min/mg protein) was calculated as Eq. 1: CLint=0.693/in vitro t1/2×volume of incubation (μl)/amount of microsomal protein in incubation (mg) (1) ([Suzuki et al., 2003]).Apparent permeability was obtained according to the equation Papp = (dQ/dt)/(A × C0), where dQ/dt is the mass transport rate (determined from the slope of the amount transported vs. time plot), A is the surface area of the monolayer, and C0 is the initial concentration of YL-IPA08 in the donor chamber ([Suzuki et al., 2003]). The efflux ratio was calculated for each study using the following equation: […] = Papp(B–A)/Papp(A–B), where Papp(B–A) and Papp(A–B) represent apparent drug permeability in the B to A and A to B direction, respectively. An efflux ratio greater than 2 indicates net efflux.

in vitro [2] = settings: human, Caco-2
Protocol: as §1, §2

in vitro [3] = format: in vitro ADME; settings: human, microsomes
Protocol: (§3) The fraction of unbound YL-IPA08 in plasma and liver microsomes of rat and human, and brain homogenates of rat were determined utilizing Rapid Equilibrium Dialysis method ([Waters et al., 2008]). Rat brain homogenate was harvested in 4-fold volume (w/v) of PBS (pH 7.4). YL-IPA08 were spiked into fresh plasma, rat brain homogenate, liver microsomes (0.2 mg/ml protein) at concentration of 1 µM, and then dialyzed against biomatrices on a shaker at 37°C for 4 h. To avoid the high non-specific binding of YL-IPA08, 0.01% Tween 80 was added in the incubation mixture. At the end of the incubation, protein was precipitated with acetonitrile (containing IS) and analyzed by LC-MS/MS. Phenacetin, quinidine, and warfarin were selected as positive control for the protein binding test.
The unbound fraction of YL-IPA08 in plasma or liver microsomes (ƒu,x) was calculated as shown in Eq. 2, and unbound fraction in the tissue homogenate (ƒu,b) was calculated according to Eq. 3. fu,x = Concbuffer chamber/Concplasma/liver microsomes chamber (2) fu,b = Concbuffer chamber/Concbrain homogenate chamber (3) The measured unbound fractions would be higher when a tissue is homogenized and diluted in buffer, the unbound fractions in an undiluted tissues (ƒu,brain) were calculated using Eq. 4 ([Kalvass and Maurer, 2002]). […]

[4] = Metabolic stability in human liver microsomes (NADPH / UDPGA); settings: HLM
TSPO = assay: In vitro TSPO binding, crude mitochondrial fraction from rat cerebellum; settings: corrected by binding fraction of 10-volume brain homogenate
Excerpt: Unbound fractions of YL-IPA08 in rat plasma and brain homogenate were 0.6 and 0.49%, respectively. K p value of brain to plasma in rats was obtained under steady state to reach brain equilibrium in a transient dosing regimen. Then, K p,uu achieved 0.18. The unbound concentration of YL-IPA08 in brain can be estimated based on the plasma concentrations after rats receiving different dosages of YL-IPA08 via oral dosing (Table 4). For example, the unbound concentration of 6.5 pg/g in brain can be achieved after 1 mg/kg oral dosing. […] The unbound concentration in the incubates was obtained with 0.0108 nM (e.g., 4.9 pg/ml) by correcting the binding fraction of 10-volume brain homogenate (0.047).

[5] = male, rat, in vivo, po, 1 mg/kg; for Plasma concentration: SD
Protocol: The surgical procedure for portal vein catheter insertion was performed according to reference ([Matsuda et al., 2012]). Male SD rats (250–280 g) were purchased from Beijing Vital River Laboratory Animal Technology Co., Ltd. (Beijing, China). Rats were anesthetized with 2% pentobarbital sodium (0.2–0.3 mg/100 g) intraperitoneally dosed. Cannulation into the jugular vein was performed by the method of Murakami reported ([Murakami et al., 2003]) with minor modification. Briefly, an incision of ∼0.5 cm near right clavicle was made and the jugular vein was exposed. Next, this vein was cannulated with ∼12.5 cm of silicone gel tubing (0.6 mm I.D. × 0.9 mm O.D., Skillsmodel Inc., Beijing, China). The other side of the tubing was passed through the back skin. 2.5 cm midline incision was made in the abdominal cavity close to ensiform process and the portal vein was detached. To prevent bleeding, the portal vein was ligated temporarily as the catheter was inserted. The silicone tubing (22 cm, 0.6 mm I.D. × 0.9 mm O.D., Skillsmodel Inc., Beijing, China) was inserted immediately and fixed by a purse-string suture on the portal vein. The time to reperfusion was about 1 min after intercepted blood flow. In addition, a catheter with trumpet-shaped opening was used to prevent the catheter from slipping out of the vessel and minimize the effect on blood flow. Another end of the catheter was passed subcutaneously to the skin close to the scapula.
Blood samples were collected at 0, 0.083, 0.25, 0.5, 1, 2, 4, 6, 8 and 12 h. Blood (approximately 100 µl) was collected from the jugular and portal veins into tubes containing heparin on ice and centrifuged within 1 h of collection. Plasma was harvested and stored at −20°C for bioanalysis.
FaFg was calculated using mass balance method and rat portal blood flow (Qpv) of 32 ml/min/kg, where Rb/p is used to convert plasma concentrations to blood concentrations.

[6] = Protein binding by rapid equilibrium dialysis, rat brain homogenate; format: in vitro ADME
Protocol: as §3
The unbound fraction of YL-IPA08 in plasma or liver microsomes (ƒu,x) was calculated as shown in Eq. 2, and unbound fraction in the tissue homogenate (ƒu,b) was calculated according to Eq. 3. fu,x = Concbuffer chamber/Concplasma/liver microsomes chamber (2) fu,b = Concbuffer chamber/Concbrain homogenate chamber (3) The measured unbound fractions would be higher when a tissue is homogenized and diluted in buffer, the unbound fractions in an undiluted tissues (ƒu,brain) were calculated using Eq. 4 ([Kalvass and Maurer, 2002]). Undiluted fu,brain=1/D/((1/fu,brain homogenate)−1)+1/D (4) Where D represents the fold of dilution factor in brain homogenates.

[7] = Freeze-thaw three cycles, HQC (400ng/ml)
[8] = Freeze-thaw three cycles, LQC (1ng/ml)
[9] = Freeze-thaw three cycles, MQC (20ng/ml)
[10] = In auto-sample for 24 h, HQC (400ng/ml)
[11] = In auto-sample for 24 h, LQC (1ng/ml)
[12] = In auto-sample for 24 h, MQC (20ng/ml)
[13] = Room temperature for 24 h, HQC (400ng/ml)
[14] = Room temperature for 24 h, LQC (1ng/ml)
[15] = Room temperature for 24 h, MQC (20ng/ml)

With CCN(Cc1ccccn1)C(=O)Cc1c(-c2ccc(Cl)c(Cl)c2)nc2cc(C)ccn12 [YL-IPA08] the Accuracy ([1]; 4℃ for 24 h, HQC (400ng/ml)) was 99.8±8.0%, the Measured value ([1]; 4℃ for 24 h, HQC (400ng/ml)) was 399.00 ± 31.76 ng/mL and the Accuracy ([1]; 4℃ for 24 h, LQC (1ng/ml)) was 113.0±9.0%. It also gave a Measured value ([1]; 4℃ for 24 h, LQC (1ng/ml)) of 1.13 ± 0.09 ng/mL, an Accuracy ([1]; 4℃ for 24 h, MQC (20ng/ml)) of 108.7±5.3% and a Measured value ([1]; 4℃ for 24 h, MQC (20ng/ml)) of 21.73 ± 1.07 ng/mL. The Accuracy ([1]; -40℃ for 7 d, HQC (400ng/ml)) was 105.1±8.5%, the Measured value ([1]; -40℃ for 7 d, HQC (400ng/ml)) was 420.33 ± 33.84 ng/mL and the Accuracy ([1]; -40℃ for 7 d, LQC (1ng/ml)) was 105.0±6.0%. The Measured value ([1]; -40℃ for 7 d, LQC (1ng/ml)) was 1.05 ± 0.06 ng/mL, the Accuracy ([1]; -40℃ for 7 d, MQC (20ng/ml)) was 105.0±4.1% and the Measured value ([1]; -40℃ for 7 d, MQC (20ng/ml)) was 21.00 ± 0.82 ng/mL. For the same compound, the Accuracy [1, 7] was 96.8±2.6%, the Measured value [1, 7] was 387.33 ± 10.21 ng/mL and the Accuracy [1, 8] was 114.0±5.0%. The Measured value [1, 8] was 1.14 ± 0.05 ng/mL, the Accuracy [1, 9] was 103.0±1.8% and the Measured value [1, 9] was 20.60 ± 0.36 ng/mL. It also gave an Accuracy [1, 10] of 98.6±3.0%, a Measured value [1, 10] of 394.33 ± 12.06 ng/mL and an Accuracy [1, 11] of 95.0±2.0%. The Measured value [1, 11] was 0.95 ± 0.02 ng/mL, the Accuracy [1, 12] was 100.4±1.2% and the Measured value [1, 12] was 20.07 ± 0.25 ng/mL. It also gave an Accuracy [1, 13] of 102.5±1.4%, a Measured value [1, 13] of 410.00 ± 5.57 ng/mL and an Accuracy [1, 14] of 110.0±8.0%. The Measured value [1, 14] was 1.10 ± 0.08 ng/mL, the Accuracy [1, 15] was 112.5±4.1% and the Measured value [1, 15] was 22.50 ± 0.82 ng/mL. The “permeability across Caco-2 cells (in words)” value (Caco-2 cells; Caco-2) was “high permeability”, the “Concentration, DOB” value (Caco-2 cells; Caco-2, basolateral donor at time 0) was 8883 ± 436 nM and the “Concentration, DOA” value (Caco-2 cells; human, Caco-2, 0 min, 10 µM) was 8350 ± 173 nM. The “Concentration, A-B-B-60 min” value (Caco-2 cells; human, Caco-2, 60 min, 10 µM) was 13 ± 4 nM, the “Concentration, B-A-A-60 min” value (Caco-2 cells; human, Caco-2, 60 min, 10 µM) was 28 ± 8 nM and the “Concentration, A-B-B-90min” value (Caco-2 cells; human, Caco-2, 90 min, 10 µM) was 36 ± 25 nM. For the same compound, the “Concentration, B-A-A-90min” value (Caco-2 cells; human, Caco-2, 90 min, 10 µM) was 68 ± 27 nM, the “Concentration, A-B-A-120 min” value (Caco-2 cells; human, Caco-2, 120 min, 10 µM) was 1755 ± 135 nM and the “Concentration, A-B-B-120 min” value (Caco-2 cells; human, Caco-2, 120 min, 10 µM) was 50 ± 17 nM. For the same compound, the “Concentration, B-A-A-120 min” value (Caco-2 cells; human, Caco-2, 120 min, 10 µM) was 105 ± 14 nM, the “Concentration, B-A-B-120 min” value (Caco-2 cells; human, Caco-2, 120 min, 10 µM) was 2598 ± 360 nM and the “P appA-B” value (Caco-2 cells; human, Caco-2, 120 min, 10 µM) was 3.99 × 10^–6 cm/s. The “P appB-A” value (Caco-2 cells; human, Caco-2, 120 min, 10 µM) was 2.63 × 10^–6 cm/s, the Papp A→B at 120 min, 10 μM (in vitro [2]) was 3.99 ± 1.46 ×10⁻⁶ cm/s and the Papp B→A at 120 min, 10 μM (in vitro [2]) was 2.63 ± 0.43 ×10⁻⁶ cm/s. For the same compound, the efflux ratio at 120 min, 10 μM (in vitro [2]) was 0.66, the fraction unbound at 4 h, 1 µM (in vitro [3]) was 0.447 and the “Clint normalized by CYP content” value [4] was 3.47 ± 0.04 ml/min/nmol CYP protein and 2.76 ± 0.05 ^a ml/min/nmol CYP protein. The “unbound concentration in the incubates / in vitro TSPO-binding activity” value (TSPO) was 4.9 pg/mL, the Plasma concentration ([5]; 0.5 h) was 111.40 ± 22.00 ng/mL and the Plasma concentration ([5]; 1 h) was 101.93 ± 40.76 ng/mL. For the same compound, the Plasma concentration ([5]; 2 h) was 91.33 ± 38.19 ng/mL, the Plasma concentration ([5]; 4 h) was 41.78 ± 20.79 ng/mL and the Plasma concentration ([5]; 6 h) was 12.85 ± 4.33 ng/mL. For the same compound, the Plasma concentration ([5]; 8 h) was 5.62 ± 1.64 ng/mL, the Plasma concentration ([5]; 12 h) was 1.98 ± 0.88 ng/mL and the “F a F g” value ([5]; Sprague-Dawley (SD)) was 22%. For the same compound, the “Protein biding (%)” value ([6]; Rat brain homogenate, 1 µM, dialysis 4 h) was 99.51 ± 0.01%, the “Concentration, Cbuffer chamber” value ([6]; Rat brain homogentate, 4 h) was 18.85 ± 0.21 nM and the “Concentration, Cplasma/microsome chamber” value ([6]; rat, 4 h, 1 µM, pH 7.4) was 788.33 ± 8.39 nM. For the same compound, the fraction unbound at 4 h, 1 µM ([6]; rat, brain homogenate, pH 7.4) was 0.0049.
